Conditions: 343.16 K, Liquid, Vibrating tube method

CCCCCC(=O)OCC(COC(=O)CCCCC)(COC(=O)CCCCC)COC(=O)CCCCC [pentaerythritol tetrahexanoate]
Conditions | mass density [kg/m3]
27885 kPa | 976.9
27922 kPa | 976.9
27953 kPa | 976.9
27990 kPa | 976.9
28022 kPa | 977
28053 kPa | 977
28081 kPa | 976.9
28111 kPa | 977
28135 kPa | 977
28160 kPa | 977.1
28189 kPa | 977.2
28213 kPa | 977
28238 kPa | 977.1
28267 kPa | 977
28292 kPa | 977.1
28613 kPa | 977.3
28638 kPa | 977.3
28664 kPa | 977.3
28694 kPa | 977.4
28719 kPa | 977.5
28745 kPa | 977.4
28777 kPa | 977.5
28799 kPa | 977.4
28830 kPa | 977.4
28855 kPa | 977.4
28886 kPa | 977.6
28912 kPa | 977.6
28938 kPa | 977.6
28969 kPa | 977.3
28995 kPa | 977.6
29021 kPa | 977.5
29048 kPa | 977.7
29360 kPa | 977.8
29386 kPa | 977.8
29419 kPa | 977.8
29533 kPa | 977.9
29560 kPa | 977.9
29588 kPa | 978
29620 kPa | 977.8
29648 kPa | 977.9
29680 kPa | 978
29708 kPa | 978
29735 kPa | 978
29824 kPa | 978
30097 kPa | 978.2
30127 kPa | 978.2
30157 kPa | 978.2
30193 kPa | 978.4
30518 kPa | 978.6
30540 kPa | 978.4
30566 kPa | 978.7
30588 kPa | 978.5
30610 kPa | 978.5
30637 kPa | 978.6
30659 kPa | 978.6
30682 kPa | 978.8
30704 kPa | 978.7
30731 kPa | 978.6
30753 kPa | 978.7
30776 kPa | 978.7
30798 kPa | 978.7
30825 kPa | 978.7
30848 kPa | 978.5
30871 kPa | 978.7
30894 kPa | 979
30917 kPa | 978.8
30944 kPa | 978.8
30966 kPa | 978.8
30993 kPa | 978.8
31016 kPa | 978.8
31038 kPa | 978.8
31065 kPa | 978.9
31088 kPa | 978.8
31111 kPa | 978.8
31134 kPa | 978.8
31161 kPa | 978.9
31185 kPa | 979
31208 kPa | 978.9
31236 kPa | 978.9
31259 kPa | 979
31282 kPa | 979
31304 kPa | 979.1
31332 kPa | 979
31355 kPa | 979
31382 kPa | 979.1
31405 kPa | 979
31429 kPa | 979.1
31480 kPa | 979.2
31504 kPa | 979.1
31527 kPa | 979.2
31555 kPa | 979.3
31578 kPa | 979.3
31606 kPa | 979.3
31630 kPa | 979.2
31654 kPa | 979.2
31682 kPa | 979.3
31706 kPa | 979.3
31729 kPa | 979.3
31758 kPa | 979.3
31782 kPa | 979.3
31806 kPa | 979.3
31830 kPa | 979.3
31859 kPa | 979.3
31883 kPa | 979.4
31912 kPa | 979.4
31936 kPa | 979.3
31960 kPa | 979.3
31984 kPa | 979.4
32013 kPa | 979.5
32037 kPa | 979.6
32061 kPa | 979.4
32090 kPa | 979.4
32114 kPa | 979.5
32144 kPa | 979.6
32169 kPa | 979.6
32193 kPa | 979.4
32217 kPa | 979.6
32247 kPa | 979.8
32272 kPa | 979.6
32296 kPa | 979.7
32326 kPa | 979.6
32351 kPa | 979.7
32381 kPa | 979.7
32406 kPa | 979.6
32431 kPa | 979.6
32456 kPa | 979.8
32486 kPa | 979.8
32511 kPa | 979.7
32536 kPa | 979.7
32562 kPa | 979.8
32592 kPa | 979.9
32617 kPa | 979.8
32647 kPa | 979.9
32672 kPa | 979.8
32698 kPa | 979.8
32724 kPa | 980
32755 kPa | 979.9
32780 kPa | 980
32806 kPa | 979.9
32837 kPa | 979.9
32863 kPa | 980
32889 kPa | 980
32920 kPa | 979.8
32945 kPa | 980
32971 kPa | 980

— the NIST ThermoML archive (doi:10.1021/je060271a)
